From US6451800B1, “Phenylpiperazine derivatives as integrin αvβ3 antagonists” (Meiji Seika Kaisha, Ltd., priority 1998, dated 2002) come the findings set out here.

Data set [1] addresses T1, integrin αvβ3 (vitronectin receptor purified from the human placenta) (Homo sapiens, UniProt P05106+P06756).
T1 construct: a vitronectin receptor (protein content: 118 μg/ml) purified from the human placenta; from tissue; host or cells: human placenta
The data set is described as follows: αvβ3 binding assay (vitronectin-vitronectin receptor binding assay). To be noted: for IC50: vitronectin receptor from human placenta, read-out: IC50, inhibition of binding between vitronectin and vitronectin receptor (αvβ3 binding inhibitory activity). The method, then: Integrin αvβ3 antagonistic activity was measured for the compounds according to the present invention in a vitronectin-vitronectin receptor binding assay system in accordance with the method of Kouns et al. (W. C. Kouns, D. Kirchhofer, P. Hadvary, A. Edenhofer, T. Weller, G. Pfenninger, H. R. Baumgartner, L. K. Jennings and B. Steiner, Blood, 8, 2539-2547 (1992)).
Specifically, a vitronectin receptor (protein content: 118 μg/ml) purified from the human placenta in accordance with the method of Pytela et al. (R. Pytela, M. D. Pierschbacher, S. Argraves, S. Suzuki, and E. Ruoslahti, Method in Enzymology, 144, 475-489 (1987)) was diluted 50 times with TBS (20 mM Tris-HCl, 150 mM NaCl, 1 mM CaCl2, 1 mM MgCl2, pH 7.4), and distributed and coated on wells (50 μl/well) of a plate (Maxisorp, Nunc, 96 well Immuno Plate). The plate was then allowed to stand at 4° C. for 1 day, washed twice with TBS (200 μl/well), and then subjected to blocking with TBS (150 μl/well) containing 1% bovine serum albumin (SIGMA) at 4° C. overnight. After washing twice with TBS (200 μl/well), 50 μl of vitronectin (CALBIOCHEM) adjusted to 0.2 μg/ml by the addition of TBS (TBS-Tween) containing 0.01% Tween-20 was mixed with 50 μl of each test compound adjusted to each concentration in wells, and a reaction was allowed to proceed at room temperature for 4 hr. After the completion of the reaction, the wells were washed five times with TBS-Tween. A solution prepared by diluting anti-vitronectin rabbit antiserum (CHEMICON) 500 times with TBS-Tween was added as a primary antibody in an amount of 50 μl per well, and a reaction was allowed to proceed at room temperature for 1.5 hr. After washing five times with 200 μl/well of TBS-Tween, a peroxidase (POD)-labeled anti-rabbit IgG antibody solution (CAPPEL) diluted 500 times with TBS-Tween was added as a secondary antibody in an amount of 50 μl/well, and a reaction was allowed to proceed at room temperature for 1.5 hr. After washing five times with TBS-Tween (200 μl /well), ABTS (2,2′-azino-bis(3-ethylbenzthiazoline-6-sulfonic acid), SIGMA) was adjusted to 1 mg/ml by the addition of a ten-fold diluted POD-buffer (ZYMED), and added in an amount of 50 μl/well, and a reaction was allowed to proceed for 5 to 10 min. A 0.1 M citric acid buffer (pH 4.3) containing 0.05% NaN3 was added in an amount of 50 μl/well to stop the reaction, followed by the measurement of the absorbance at 415 nm with a microplate reader (MTP 32, Corona Electric) (reference: 675 nm). The total binding was defined as the absorbance after a reaction using 50 μl of TBS-Tween instead of the test compound, and the non-specific binding (100% inhibition) was defined as the absorbance after a reaction using 50 μl of TBS-Tween containing 2×10^−3 M RGDS. The inhibition was calculated by the following equation: [formula]
(§1) IC50 was determined from a primary regression line of the logarithm of each concentration of the test compound and the logarithm of (100−inhibition)/inhibition.

Another data set concerns the target GP IIb/IIIa (Homo sapiens, UniProt P05106+P08514). The data set is described as follows: GP IIb/IIIa antagonistic activity (method of Pharmacological Test 2 in WO 94/21599). Format: binding. The method, then:
(§2) GP IIb/IIIa Antagonistic Activity and Human Platelet Aggregation Inhibitory Activity
GP IIb/IIIa antagonistic activity was measured for the compounds according to the present invention. The measurement of the GP IIb/IIIa antagonistic activity was carried out according to the method described in Pharmacological Test 2 in WO 94/21599.

The target in data set [2] is T2, integrin α5β1 (fibronectin receptor purified from the human placenta) (Homo sapiens, UniProt P05556+P08648).
T2 construct: a fibronectin receptor (protein content: 52.1 μg/ml) purified from the human placenta; from tissue; host or cells: human placenta
The data set is described as follows: α5β1 binding assay (fibronectin-fibronectin receptor binding assay). To be noted: read-out: IC50, integrin α5β1 antagonistic activity (fibronectin-fibronectin receptor binding). The method, then: The plate was then allowed to stand at 4° C. for one day, washed twice with TBS (200 μl/well), and then subjected to blocking with TBS (150 μl/well) containing 3% skim milk (DIFCO) at 4° C. overnight. […] After the completion of the reaction, the wells were washed five times with TBS-Tween. A solution prepared by diluting a peroxidase-labeled fibronectin antibody (CAPPEL) 500 times with TBS-Tween was added in an amount of 50 μl per well, and a reaction was allowed to proceed at room temperature for 1.5 hr. After washing five times with TBS-Tween (200 μl/well), ABTS (SIGMA) adjusted to 1 mg/ml by the addition of a ten-fold diluted POD-buffer (ZYMED) was added in an amount of 50 μl/well, and a reaction was allowed to proceed for 5 to 10 min. A 0.1 M citric acid buffer (pH 4.3) containing 0.05% NaN3 was added in an amount of 50 μl/well to stop the reaction, followed by the measurement of the absorbance at 415 nm with a microplate reader (MTP 32, Corona Electric) (reference: 675 nm). […] The inhibition was calculated by the following equation: [formula]
as §1

Data set [3] has as its system human platelet aggregation. The data set is described as follows: Human platelet aggregation inhibitory activity (method of Pharmacological Test 1 in WO 94/21599). It is filed as cell-based. The conditions noted are these: for IC50: read-out: IC50, human platelet aggregation inhibition. As for the experimental part: as §2
Human platelet aggregation inhibitory activity was measured for the compounds according to the present invention. The measurement of the human platelet aggregation activity was carried out according to the method described in Pharmacological Test 1 in WO 94/21599.

Another data set can be described thus: Oral absorption in rats. Format: in vivo. To be noted: data not shown. The source says: Therefore, any of the compounds, wherein R^9 represents an alkyl group or a hydrogen atom, can be used in the treatment of the above diseases.

Chain of GP IIb/IIIa (P08514 32-887 limits assumed): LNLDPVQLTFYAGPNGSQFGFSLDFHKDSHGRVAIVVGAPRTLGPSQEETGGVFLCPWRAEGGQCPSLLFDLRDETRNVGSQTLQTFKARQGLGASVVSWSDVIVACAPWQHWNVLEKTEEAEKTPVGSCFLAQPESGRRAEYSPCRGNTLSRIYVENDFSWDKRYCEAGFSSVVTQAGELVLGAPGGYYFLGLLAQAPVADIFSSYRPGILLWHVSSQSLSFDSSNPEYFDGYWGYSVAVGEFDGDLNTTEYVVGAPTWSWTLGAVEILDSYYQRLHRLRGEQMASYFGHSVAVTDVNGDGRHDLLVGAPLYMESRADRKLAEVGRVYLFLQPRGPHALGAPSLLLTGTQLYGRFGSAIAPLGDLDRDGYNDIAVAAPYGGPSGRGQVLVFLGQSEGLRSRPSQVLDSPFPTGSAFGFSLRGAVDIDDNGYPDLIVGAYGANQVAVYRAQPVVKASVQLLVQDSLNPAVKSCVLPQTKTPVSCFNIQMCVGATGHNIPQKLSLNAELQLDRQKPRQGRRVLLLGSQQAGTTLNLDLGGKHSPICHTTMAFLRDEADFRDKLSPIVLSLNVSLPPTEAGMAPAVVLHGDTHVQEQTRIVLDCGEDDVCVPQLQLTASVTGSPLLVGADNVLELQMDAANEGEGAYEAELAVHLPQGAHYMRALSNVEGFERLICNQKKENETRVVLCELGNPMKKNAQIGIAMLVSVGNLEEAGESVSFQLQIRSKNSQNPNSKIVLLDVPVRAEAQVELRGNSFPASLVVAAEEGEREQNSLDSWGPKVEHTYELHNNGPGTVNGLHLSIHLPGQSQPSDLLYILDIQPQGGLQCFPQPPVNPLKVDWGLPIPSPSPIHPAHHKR
Chain of GP IIb/IIIa (P08514 891-1039 partner limits assumed): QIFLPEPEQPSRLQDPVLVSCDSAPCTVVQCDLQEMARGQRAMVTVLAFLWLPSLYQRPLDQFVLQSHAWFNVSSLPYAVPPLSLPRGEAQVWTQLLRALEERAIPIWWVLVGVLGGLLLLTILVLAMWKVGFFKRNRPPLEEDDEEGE
Chain of GP IIb/IIIa (P05106 27-788): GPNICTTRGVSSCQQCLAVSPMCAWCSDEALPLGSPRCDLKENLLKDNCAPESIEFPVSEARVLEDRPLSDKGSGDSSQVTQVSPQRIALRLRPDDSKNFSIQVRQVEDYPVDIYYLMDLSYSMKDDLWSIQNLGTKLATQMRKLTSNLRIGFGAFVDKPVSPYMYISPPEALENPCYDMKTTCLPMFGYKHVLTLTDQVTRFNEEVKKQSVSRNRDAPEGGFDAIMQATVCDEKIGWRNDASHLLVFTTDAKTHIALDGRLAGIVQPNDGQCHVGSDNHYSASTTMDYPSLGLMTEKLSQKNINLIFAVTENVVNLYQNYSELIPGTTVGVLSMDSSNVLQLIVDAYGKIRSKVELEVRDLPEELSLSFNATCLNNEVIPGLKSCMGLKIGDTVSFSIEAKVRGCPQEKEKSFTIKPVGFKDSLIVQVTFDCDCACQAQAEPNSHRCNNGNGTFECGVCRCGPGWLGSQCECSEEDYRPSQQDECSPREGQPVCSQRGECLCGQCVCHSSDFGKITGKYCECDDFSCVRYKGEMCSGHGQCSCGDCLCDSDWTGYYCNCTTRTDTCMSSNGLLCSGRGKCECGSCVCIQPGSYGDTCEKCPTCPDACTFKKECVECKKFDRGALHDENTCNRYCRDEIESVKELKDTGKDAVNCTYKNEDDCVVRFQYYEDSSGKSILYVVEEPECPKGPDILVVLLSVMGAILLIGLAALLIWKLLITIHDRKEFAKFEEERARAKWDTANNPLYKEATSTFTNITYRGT
T1 sequence (P06756 31-889 limits assumed): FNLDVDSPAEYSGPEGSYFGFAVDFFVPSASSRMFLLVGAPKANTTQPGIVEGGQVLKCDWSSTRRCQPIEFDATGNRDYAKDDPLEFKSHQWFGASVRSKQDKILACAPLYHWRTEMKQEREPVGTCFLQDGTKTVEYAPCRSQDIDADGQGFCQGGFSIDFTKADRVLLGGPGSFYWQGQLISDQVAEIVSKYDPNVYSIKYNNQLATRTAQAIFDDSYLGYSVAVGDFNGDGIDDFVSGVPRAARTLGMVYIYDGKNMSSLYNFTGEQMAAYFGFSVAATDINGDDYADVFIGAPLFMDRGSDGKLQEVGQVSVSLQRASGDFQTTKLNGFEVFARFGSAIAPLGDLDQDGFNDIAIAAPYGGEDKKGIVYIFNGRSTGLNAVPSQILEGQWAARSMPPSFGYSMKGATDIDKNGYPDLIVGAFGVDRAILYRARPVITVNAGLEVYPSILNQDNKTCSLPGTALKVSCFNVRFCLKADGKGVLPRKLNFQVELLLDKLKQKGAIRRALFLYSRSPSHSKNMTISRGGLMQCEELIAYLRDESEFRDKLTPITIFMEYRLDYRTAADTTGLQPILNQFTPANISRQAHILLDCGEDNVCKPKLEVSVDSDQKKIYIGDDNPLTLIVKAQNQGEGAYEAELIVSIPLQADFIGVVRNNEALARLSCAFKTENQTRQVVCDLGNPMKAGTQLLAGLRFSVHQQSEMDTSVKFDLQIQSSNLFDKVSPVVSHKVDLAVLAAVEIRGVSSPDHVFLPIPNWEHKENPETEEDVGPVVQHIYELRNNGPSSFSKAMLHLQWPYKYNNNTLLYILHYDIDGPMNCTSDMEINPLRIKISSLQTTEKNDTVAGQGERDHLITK
T1 sequence (P06756 891-1048 partner limits assumed): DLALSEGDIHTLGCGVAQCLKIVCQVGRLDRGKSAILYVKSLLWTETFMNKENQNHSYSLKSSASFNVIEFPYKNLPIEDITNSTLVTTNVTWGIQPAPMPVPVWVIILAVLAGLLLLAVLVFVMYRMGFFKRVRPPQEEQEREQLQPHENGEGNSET
T1 sequence (P05106 27-788): as the sequence (P05106 27-788) above
T2 sequence (P08648 42-894 limits assumed): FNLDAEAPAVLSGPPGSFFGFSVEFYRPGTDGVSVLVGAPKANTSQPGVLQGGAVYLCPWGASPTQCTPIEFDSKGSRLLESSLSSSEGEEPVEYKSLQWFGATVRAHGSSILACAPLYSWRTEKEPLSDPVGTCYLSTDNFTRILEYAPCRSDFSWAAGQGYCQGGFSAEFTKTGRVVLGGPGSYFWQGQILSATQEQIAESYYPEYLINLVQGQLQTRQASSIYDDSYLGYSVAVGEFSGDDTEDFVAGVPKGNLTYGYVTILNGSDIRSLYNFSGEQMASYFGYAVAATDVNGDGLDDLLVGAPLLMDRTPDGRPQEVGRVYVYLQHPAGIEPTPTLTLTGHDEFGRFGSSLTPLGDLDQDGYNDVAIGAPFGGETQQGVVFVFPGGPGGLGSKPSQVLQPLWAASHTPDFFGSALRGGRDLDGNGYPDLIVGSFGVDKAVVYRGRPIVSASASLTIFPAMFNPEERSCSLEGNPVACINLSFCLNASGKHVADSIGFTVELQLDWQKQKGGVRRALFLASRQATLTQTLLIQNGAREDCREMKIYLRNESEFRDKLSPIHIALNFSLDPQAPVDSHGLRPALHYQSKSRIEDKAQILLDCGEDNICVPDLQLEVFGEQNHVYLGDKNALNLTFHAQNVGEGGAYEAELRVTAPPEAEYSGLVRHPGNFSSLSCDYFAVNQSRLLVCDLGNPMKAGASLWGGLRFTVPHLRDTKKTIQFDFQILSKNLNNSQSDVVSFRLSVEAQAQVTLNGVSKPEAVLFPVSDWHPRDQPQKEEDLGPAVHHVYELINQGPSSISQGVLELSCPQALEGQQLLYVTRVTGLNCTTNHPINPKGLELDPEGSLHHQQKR
T2 sequence (P08648 895-1049 partner limits assumed): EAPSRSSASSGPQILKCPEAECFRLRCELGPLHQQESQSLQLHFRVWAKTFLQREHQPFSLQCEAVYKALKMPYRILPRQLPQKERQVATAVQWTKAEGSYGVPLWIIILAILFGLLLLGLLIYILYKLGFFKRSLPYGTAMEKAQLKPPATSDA
T2 sequence (P05556 21-798): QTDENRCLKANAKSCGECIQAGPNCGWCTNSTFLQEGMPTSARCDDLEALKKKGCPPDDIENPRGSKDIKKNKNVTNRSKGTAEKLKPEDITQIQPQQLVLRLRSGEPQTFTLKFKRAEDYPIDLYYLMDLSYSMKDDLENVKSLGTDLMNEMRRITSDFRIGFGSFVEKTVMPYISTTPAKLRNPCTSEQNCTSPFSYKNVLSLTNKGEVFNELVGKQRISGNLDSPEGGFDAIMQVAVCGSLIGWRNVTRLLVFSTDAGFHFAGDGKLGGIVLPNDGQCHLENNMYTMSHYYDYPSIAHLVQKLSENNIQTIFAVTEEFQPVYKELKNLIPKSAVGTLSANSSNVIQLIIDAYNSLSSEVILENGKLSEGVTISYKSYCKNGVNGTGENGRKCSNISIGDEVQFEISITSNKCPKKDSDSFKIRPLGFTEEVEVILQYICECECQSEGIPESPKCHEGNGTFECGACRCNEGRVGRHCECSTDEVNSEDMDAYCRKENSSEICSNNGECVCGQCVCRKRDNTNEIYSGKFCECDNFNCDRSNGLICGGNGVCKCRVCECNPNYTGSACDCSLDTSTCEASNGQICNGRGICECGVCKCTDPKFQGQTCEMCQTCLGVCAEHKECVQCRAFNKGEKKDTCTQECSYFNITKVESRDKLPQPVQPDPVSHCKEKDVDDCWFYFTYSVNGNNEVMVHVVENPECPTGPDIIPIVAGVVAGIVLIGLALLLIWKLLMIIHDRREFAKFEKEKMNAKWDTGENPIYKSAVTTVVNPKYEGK

For `C[C@H]1CN(c2ccc(C(=O)NC[C@H](NS(=O)(=O)c3ccccc3)C(=O)O)cc2F)CCN1C1=NCCCN1` [Example 72, (2S)-Benzenesulfonylamino-3-[3-fluoro-4-{(3S)-methyl-4-(1,4,5,6-tetrahydropyrimidin-2-yl)-piperazin-1-yl}-benzoylamino]-propionic Acid], in data set [1], the “integrin αvβ3 antagonistic activity (in words)” value is given as “high integrin αvβ3 antagonistic activity”. For the same molecule, on GP IIb/IIIa, the “GP IIb/IIIa antagonistic activity (in words)” value is given as “extremely high GP IIb/IIIa antagonistic activity” and the IC50 is not above 0.2 nM.

For the molecule `O=C(NC[C@H](NS(=O)(=O)c1ccccc1)C(=O)O)c1ccc(N2CCN(C3=NCCCN3)CC2)c(Cl)c1` [Example 59, (2S)-Benzenesulfonylamino-3-[3-chloro-4-{4-(1,4,5,6-tetrahydropyrimidin-2-yl)-piperazin-1-yl}-benzoylamino]-propionic Acid], the IC50 was 63 µM in data set [2], 3.5 nM in data set [1] and not above 0.2 nM on GP IIb/IIIa.

As for `CC1CN(c2ccc(C(=O)NC[C@H](NS(=O)(=O)c3ccccc3)C(=O)O)cc2)CCN1C1=NCCCN1` (stereo partly drawn) [Example 9, (2S)-Benzenesulfonylamino-3-[4-{3-methyl-4-(1,4,5,6-tetrahydropyrimidin-2-yl)-piperazin-1-yl}-benzoylamino]-propionic acid], in data set [3], the “human platelet aggregation inhibition (in words)” value is listed as “very strongly inhibited human platelet aggregation” and the IC50 amounted to 50 nM.

Turning to `O=C(NC[C@H](NS(=O)(=O)c1ccccc1)C(=O)O)c1ccc(N2CCN(C3=NCCCN3)CC2)cc1Cl` [Example 62, (2S)-Benzenesulfonylamino-3-[2-chloro-4-{4-(1,4,5,6-tetrahydropyrimidin-2-yl)-piperazin-1-yl}-benzoylamino]-propionic Acid], the IC50 against GP IIb/IIIa is not above 0.2 nM.

As for `Cc1cc(C)c(S(=O)(=O)N[C@@H](CNC(=O)c2ccc(N3CCN(C4=NCCCN4)CC3)c(F)c2)C(=O)O)c(C)c1` [Example 83, 3-[3-Fluoro-4-{4-(1,4,5,6-tetrahydropyrimidin-2-yl)-piperazin-1-yl}-benzoylamino]-(2S)-(2,4,6-trimethyl-benzenesulfonylamino)-propionic Acid], the IC50 is 13 µM in data set [2] and 5.8 nM in data set [1].

As to `Nc1c(N2CCN(C3=NCCCN3)CC2)ccc(C(=O)NC[C@H](NS(=O)(=O)c2ccccc2)C(=O)O)c1Cl` [Example 65, 3-[3-Amino-2-chloro-4-{4-(1,4,5,6-tetrahydropyrimidin-2-yl)-piperazin-1-yl}-benzoylamino]-(2S)-benzenesulfonylamino-propionic Acid], in data set [1], the “integrin αvβ3 antagonistic activity (in words)” value is given as “high integrin αvβ3 antagonistic activity” and the IC50 was determined as 6.3 nM. Besides, the “GP IIb/IIIa antagonistic activity (in words)” value on GP IIb/IIIa is reported as “extremely high GP IIb/IIIa antagonistic activity”.

Consider `O=C(NC[C@H](NS(=O)(=O)c1ccccc1)C(=O)O)c1ccc(N2CCCN(c3ncccn3)CC2)cc1` [Example 5, (2S)-Benzenesulfonylamino-3-[4-{4-(pyrimidin-2-yl) -[1,4]diazepan-1-yl}-benzoylamino]-propionic acid], for which the oral absorption result in “Oral absorption in rats” was “excellent oral absorption”.

On to `Cc1cc(C)c(S(=O)(=O)N[C@@H](CNC(=O)c2ccc(N3CCN(c4ncccn4)CC3)c(F)c2)C(=O)O)c(C)c1` [Example 82, 3-[3-Fluoro-4-{4-(pyrimidin-2-yl)-piperazin-1-yl}-benzoylamino]-(2S)-(2,4,6-trimethyl-benzenesulfonylamino)-propionic Acid], for which the “GP IIb/IIIa antagonistic activity (in words)” value at GP IIb/IIIa is “extremely high GP IIb/IIIa antagonistic activity”.

`O=C(NC[C@H](NS(=O)(=O)c1ccccc1)C(=O)O)c1ccc(N2CCN(C3=NCCCN3)CC2)cc1F` [Example 56, (2S)-Benzenesulfonylamino-3-[2-fluoro-4-{4-(1,4,5,6-tetrahydropyrimidin-2-yl)-piperazin-1-yl}-benzoylamino]-propionic Acid] returned an IC50 on GP IIb/IIIa not above 0.2 nM.

As to `N=C(N)N1CCN(c2ccc(C(=O)NC[C@H](NS(=O)(=O)c3ccccc3)C(=O)O)cc2)CC1` [Example 34, (2S)-Benzenesulfonylamino-3-[4-{4-(amidino)-piperazin-1-yl}-benzoylamino]-propionic Acid], in data set [3], the “human platelet aggregation inhibition (in words)” value is on record as “very strongly inhibited human platelet aggregation” and the IC50 amounted to 38 nM.

As for `C[C@@H]1CN(c2ccc(C(=O)NC[C@H](NS(=O)(=O)c3ccccc3)C(=O)O)cc2)CCN1C1=NCCCN1` [Example 12, (2S)-Benzenesulfonylamino-3-[4-{(3R)-methyl-4-(1,4,5,6-tetrahydropyrimidin-2-yl)-piperazin-1-yl}-benzoylamino]-propionic acid], in data set [3], the “human platelet aggregation inhibition (in words)” value is reported as “very strongly inhibited human platelet aggregation”.

As to `O=C(NC[C@H](NS(=O)(=O)c1ccccc1)C(=O)O)c1ccc(N2CCCN(C3=NCCCN3)CC2)cc1` [Example 6, (2S)-Benzenesulfonylamino-3-[4-{4-(1,4,5,6-tetrahydropyrimidin-2-yl)-[1,4]diazepan-1-yl}-benzoylamino]-propionic acid], in data set [3], the “human platelet aggregation inhibition (in words)” value is on record as “very strongly inhibited human platelet aggregation” and the IC50 is 50 nM.

For orientation: IC50 means the concentration needed to halve the response being measured.
